{"source": "paper PMC11581214", "about": "“Compound 4f, a novel brain-penetrant reversible monoacylglycerol inhibitor, ameliorates neuroinflammation, neuronal cell loss, and cognitive impairment in mice with kainic acid-induced neurodegeneration” (PLOS ONE, 2024)", "key": {"[1]": {"target": "T1, monoamine oxidase-B (Homo sapiens, UniProt P27338)", "T1 construct": "gene MAOB", "T1 sequence (P27338 2-520)": "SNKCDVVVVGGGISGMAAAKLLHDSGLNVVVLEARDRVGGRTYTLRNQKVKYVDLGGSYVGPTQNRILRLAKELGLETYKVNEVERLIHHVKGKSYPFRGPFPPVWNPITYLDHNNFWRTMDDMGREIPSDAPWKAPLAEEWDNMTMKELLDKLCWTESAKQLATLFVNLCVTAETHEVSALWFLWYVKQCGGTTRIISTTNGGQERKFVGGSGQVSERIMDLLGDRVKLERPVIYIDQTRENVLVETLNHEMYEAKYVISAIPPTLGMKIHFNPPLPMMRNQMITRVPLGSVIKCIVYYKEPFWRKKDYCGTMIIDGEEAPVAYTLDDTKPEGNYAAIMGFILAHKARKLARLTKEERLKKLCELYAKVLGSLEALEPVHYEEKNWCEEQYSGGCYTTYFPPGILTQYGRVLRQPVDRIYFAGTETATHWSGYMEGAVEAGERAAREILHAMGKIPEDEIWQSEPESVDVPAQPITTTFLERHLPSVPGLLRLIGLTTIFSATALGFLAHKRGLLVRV", "test": "off-target panel enzyme assay (Eurofins), single concentration […]", "assay_type": "biochemical"}, "[2]": {"target": "T2, serotonin (5-hydroxytryptamine) 2B (Homo sapiens, UniProt P41595)", "T2 construct": "gene HTR2B", "T2 sequence (P41595 whole entry)": "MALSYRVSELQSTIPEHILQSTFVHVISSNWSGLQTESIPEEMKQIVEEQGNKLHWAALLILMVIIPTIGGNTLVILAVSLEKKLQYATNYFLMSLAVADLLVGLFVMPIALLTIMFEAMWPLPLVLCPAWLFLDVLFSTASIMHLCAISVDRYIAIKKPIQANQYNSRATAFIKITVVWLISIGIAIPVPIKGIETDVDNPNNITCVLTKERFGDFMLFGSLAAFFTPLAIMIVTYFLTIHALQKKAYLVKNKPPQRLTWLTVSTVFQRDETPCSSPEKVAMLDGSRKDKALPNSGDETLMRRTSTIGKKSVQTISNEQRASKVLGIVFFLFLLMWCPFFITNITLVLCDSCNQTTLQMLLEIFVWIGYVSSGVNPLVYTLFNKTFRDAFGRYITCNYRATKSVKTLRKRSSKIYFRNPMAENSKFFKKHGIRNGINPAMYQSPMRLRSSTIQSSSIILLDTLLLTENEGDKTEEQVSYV", "test": "off-target panel of radioligand binding and functional assays (Eurofins), single concentration […]"}, "[3]": {"target": "T3, monoacylglycerol lipase (MAGL) (Mus musculus, UniProt O35678)", "T3 construct": "gene Mgll", "T3 sequence (O35678 1-303)": "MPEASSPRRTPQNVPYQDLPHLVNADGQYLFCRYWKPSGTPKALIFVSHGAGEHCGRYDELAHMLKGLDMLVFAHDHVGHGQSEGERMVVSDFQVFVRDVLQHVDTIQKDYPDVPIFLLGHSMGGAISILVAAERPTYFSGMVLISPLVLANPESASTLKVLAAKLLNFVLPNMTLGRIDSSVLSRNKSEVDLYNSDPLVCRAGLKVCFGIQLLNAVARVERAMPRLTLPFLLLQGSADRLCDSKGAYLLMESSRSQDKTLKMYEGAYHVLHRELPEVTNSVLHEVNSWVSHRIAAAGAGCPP", "test": "in vivo brain target occupancy by displacement of MAGL tracer T-211 (LC-MS/MS); brain 2-AG increase and AA decrease", "assay_type": "cell-based"}}, "data": [{"smiles": "Cc1ccc(COC2CN(C(=O)[C@H]3C[C@]4(COC(=O)N4)C3)C2)cc1Cl", "note": "[4f]", "values": [{"measurement": "inhibition at 10 µM", "setting": "[1]", "value": "< 50", "unit": "%"}, {"measurement": "inhibition at 10 µM", "setting": "[2]", "value": 81, "unit": "%"}, {"measurement": "receptor occupancy at 1 mg/kg", "setting": "[3]", "value": "> 99", "unit": "%"}]}]}
